Experiments:
Format in all cases: in vitro ADME
[1] = Metabolic stability in human hepatocytes; settings: cryopreserved hepatocytes
Procedure: (§1) Cryopreserved hepatocytes were carefully thawed in a 37 °C water bath for approximately 1 min, and transferred to a tube containing pre-warmed thawing medium. The supernatants were removed and the pellets were resuspended in KHB at a final cell density of 1 × 10^6 cells/mL, based on hemocytometer counting using trypan blue exclusion. A ETN101 solution was prepared by dissolving ETN101 in water at 4 mM and diluted by KHB at the concentration of 4 μM of ETN101. Sixty microliters each of hepatocyte suspensions and 4 μM of ETN101 were added in a 96-well plate and incubated for 0, 5, 15, 30, and 45 min at 37 °C in a CO2 incubator. All incubations were conducted in triplicates. Reactions were terminated by the addition of 120 μL of ice-cold acetonitrile and followed by vortex mixing. After centrifugation at 13,000 rpm for 8 min at 4 °C, 5 μL of internal standard (IS, camptothecin in acetonitrile at 780 ng/mL) was added to 60 μL of supernatant. A 2 μL aliquot was injected into the LC-MS/MS system. The reliability of the analysis was confirmed by incorporating three different levels of quality control samples at the beginning and end of each analytical batch. The disappearance rate (k) of ETN101 was calculated by determined peak area ratio of ETN101 to IS over incubation period. Subsequently, half-life (t1/2), intrinsic clearance (Clint), and intrinsic hepatic clearance (Clint,hep) of ETN101 in human and animal hepatocytes were calculated using the following equation [34]: t1/2(min)=ln2/−k(elimination slope) ClintμL/min/10^6 cells=ln2/t1/2×μL incubation/hepatocytes (10^6 cells) Clint,hepmL/min/kg=Clint/1000×A×10^6 cells/g liver×B g liver/kg body weight […]
(§2) For the metabolic stability assay, an LC-MS/MS system was employed, consisting of an Agilent 1260 series HPLC system (Agilent Technologies Inc., Santa Clara, CA, USA) coupled to an API 4000 mass spectrometer (AB SCIEX, Concord, Vaughan, ON, Canada) equipped with a turbo electrospray interface. […] ETN101 and IS were detected using multiple reaction monitoring (MRM) mode under positive electrospray ionization (ESI). […]

[2] = Metabolic stability in rat hepatocytes; settings: cryopreserved hepatocytes
Procedure: as §1, §2

[3] = tested on: NAT2 in human liver cytosol; assay: Human liver cytosol incubation with NAT2 inhibitor 1-aminobenzotriazole; settings: 30 min at 37 °C, M1 1 μM
Procedure: For the chemical inhibition assay, human liver cytosol was prepared in 0.05 M potassium phosphate buffer at a concentration of 1 mg/mL prior to use. A 1 μL of M1 (final concentration: 1 μM) solution was spiked in 223 μL of human liver cytosol preparations. One microliter each of caffeic acid and 1-aminobenzotriazole were added and incubated as NAT1 and NAT2 inhibitors, respectively. The final concentrations of the NAT inhibitors were 0, 100, and 1000 μM in each incubate. After 5 min of pre-warming of the incubates at 37 °C, the metabolic reaction was initiated by adding 25 μL of acetyl-CoA regenerating system to the incubates. The samples were incubated in triplicate for 0 min or 30 min at 37 °C. The reaction was stopped by adding 250 μL of ice-cold acetonitrile containing the IS (camptothecin, 500 ng/mL) and vortex-mixing. Following centrifugation at 13,000 rpm for 5 min at 4 °C, a 2 μL aliquot of the supernatant was injected into the LC-MS/MS system. The percentage of remaining M1 and the formation of M2 were evaluated to determine the involvement of the NAT isozyme in N-acetylation of M1.
For enzyme characterization, an Agilent 6460 triple quadrupole mass spectrometer coupled with a 1260 HPLC system (Agilent Technologies, Santa Clara, CA, USA) and a Kinetex Halo® C18 column (2.7 μm, 2.1 × 50 mm, Advanced Material Technology, Wilmington, DE, USA) were used for chromatographic separation. The mobile phases comprised 0.1% (v/v) formic acid in water (mobile phase A) and 0.1% formic acid (v/v) in acetonitrile (mobile phase B). The mobile phase flowed at a rate of 0.3 mL/min, and the gradient elution program proceeded as follows: starting with 10% B for 0.5 min, a linear increase to 90% B for 0.2 min, maintaining 90% B for 1.5 min, and then returning to initial conditions for 0.2 min. Subsequently, the column was reconditioned using 10% B for 2.6 min. The column and auto-sampler were maintained at 40 °C and 4 °C, respectively. ETN101, M1, and M2 were detected via MRM using ESI in the positive mode. […]

half-life at 2 µM ([1]; 45 min incubation at 37 °C)	hepatocyte CLint at 2 µM ([1]; 45 min incubation at 37 °C)	CLint scaled at 2 µM ([1]; scaled from Clint)	half-life at 2 µM ([2]; 45 min incubation at 37 °C)	hepatocyte CLint at 2 µM ([2]; 45 min incubation at 37 °C)	CLint scaled at 2 µM ([2]; scaled from Clint)	Compound	Percentage remaining of M1 ([3]; 1-aminobenzotriazole 0 μM)	Percentage remaining of M1 ([3]; 1-aminobenzotriazole 100 μM)	Percentage remaining of M1 ([3]; 1-aminobenzotriazole 1000 μM)
1.25 h	18.5 µL/min/1e6 cells	66.1 mL/min/kg	1.15 h	20.1 µL/min/1e6 cells	94.1 mL/min/kg	NCC(N)C(=O)Nc1ccc(-c2nc3ccccc3s2)cc1 (stereo not drawn) [ETN101, 2,3-diamino-N-(4-(benzo[d]thiazol-2-yl)phenyl)propanamide]			
						Nc1ccc(-c2nc3ccccc3s2)cc1 [M1, 2-(4-aminophenyl)benzothiazole]	86.7%	89.4%	90.9%

Source: article PMC11356571, “The Comparative Metabolism of a Novel Hepatocellular Carcinoma Therapeutic Agent, 2,3-Diamino-N-(4-(benzo[d]thiazol-2-yl)phenyl)propanamide, in Human and Animal Hepatocytes” (Metabolites, 2024)
